Experimental data reported in ChEMBL document CHEMBL1201862, “PubChem BioAssay data set” (2004).
Active and inactive are the calls of the source.

Legend:
Cytochrome P450 1A2 = target: T1, Cytochrome P450 1A2 (Homo sapiens, UniProt P05177);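 further: PubChem cytochrome P450 panel assay, CYP1A2 panel member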
T1 sequence (P05177 whole entry): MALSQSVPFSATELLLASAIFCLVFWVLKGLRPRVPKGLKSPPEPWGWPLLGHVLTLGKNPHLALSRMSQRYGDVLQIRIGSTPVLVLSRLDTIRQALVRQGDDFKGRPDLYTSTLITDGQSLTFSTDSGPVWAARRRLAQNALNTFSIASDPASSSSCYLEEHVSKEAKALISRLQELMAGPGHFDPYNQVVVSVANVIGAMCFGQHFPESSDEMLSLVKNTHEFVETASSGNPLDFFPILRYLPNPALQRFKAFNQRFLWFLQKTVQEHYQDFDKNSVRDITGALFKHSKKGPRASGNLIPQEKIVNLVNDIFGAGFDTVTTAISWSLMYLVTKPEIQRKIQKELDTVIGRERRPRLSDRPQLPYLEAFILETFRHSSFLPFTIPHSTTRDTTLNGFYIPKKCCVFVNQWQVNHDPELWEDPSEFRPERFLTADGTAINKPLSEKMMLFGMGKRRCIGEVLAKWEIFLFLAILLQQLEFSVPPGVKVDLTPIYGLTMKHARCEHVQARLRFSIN

[1] = target: Adenosylmethionine-8-amino-7-oxononanoate aminotransferase (Mycobacterium tuberculosis, UniProt P9WQ81); test: Mycobacterium tuberculosis BioA enzyme inhibitor Measured in Biochemical System Using Plate Reader - 2163-02_Inhibitor_Dose_CherryPick_Activity.; assay type: functional, Mycobacterium tuberculosis UT205
Cytochrome P450 2D6 = Cytochrome P450 2D6 (Homo sapiens, UniProt P10635);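 further: CYP2D6 member of a cytochrome P450 panel assay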
Caspase-3 = target: T2, Caspase-3 (Homo sapiens, UniProt P42574); test: SAR Analysis of small molecule inhibitors of Sentrin-specific proteases (SENPs) using a Caspase-3 Selectivity assay. [Related pubchem assays (depositor defined):AID2540, AID2599, AID434973, AID489001]; assay type: functional
T2 sequence (P42574 whole entry): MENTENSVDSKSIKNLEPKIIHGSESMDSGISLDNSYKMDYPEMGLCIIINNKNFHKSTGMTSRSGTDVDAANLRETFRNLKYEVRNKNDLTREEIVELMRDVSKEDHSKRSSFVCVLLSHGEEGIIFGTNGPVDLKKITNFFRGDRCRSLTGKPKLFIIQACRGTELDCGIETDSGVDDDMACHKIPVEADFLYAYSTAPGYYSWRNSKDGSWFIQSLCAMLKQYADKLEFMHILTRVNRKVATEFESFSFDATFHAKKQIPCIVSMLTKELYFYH

[2] = target: T3, Sentrin-specific protease 6 (Homo sapiens, UniProt Q9GZR1); test: SAR Analysis of small molecule inhibitors of Sentrin-specific protease 6 (SENP6) using a Luminescent assay. [Related pubchem assays (depositor defined):AID2582, AID2599]; assay type: functional
T3 sequence (Q9GZR1 whole entry): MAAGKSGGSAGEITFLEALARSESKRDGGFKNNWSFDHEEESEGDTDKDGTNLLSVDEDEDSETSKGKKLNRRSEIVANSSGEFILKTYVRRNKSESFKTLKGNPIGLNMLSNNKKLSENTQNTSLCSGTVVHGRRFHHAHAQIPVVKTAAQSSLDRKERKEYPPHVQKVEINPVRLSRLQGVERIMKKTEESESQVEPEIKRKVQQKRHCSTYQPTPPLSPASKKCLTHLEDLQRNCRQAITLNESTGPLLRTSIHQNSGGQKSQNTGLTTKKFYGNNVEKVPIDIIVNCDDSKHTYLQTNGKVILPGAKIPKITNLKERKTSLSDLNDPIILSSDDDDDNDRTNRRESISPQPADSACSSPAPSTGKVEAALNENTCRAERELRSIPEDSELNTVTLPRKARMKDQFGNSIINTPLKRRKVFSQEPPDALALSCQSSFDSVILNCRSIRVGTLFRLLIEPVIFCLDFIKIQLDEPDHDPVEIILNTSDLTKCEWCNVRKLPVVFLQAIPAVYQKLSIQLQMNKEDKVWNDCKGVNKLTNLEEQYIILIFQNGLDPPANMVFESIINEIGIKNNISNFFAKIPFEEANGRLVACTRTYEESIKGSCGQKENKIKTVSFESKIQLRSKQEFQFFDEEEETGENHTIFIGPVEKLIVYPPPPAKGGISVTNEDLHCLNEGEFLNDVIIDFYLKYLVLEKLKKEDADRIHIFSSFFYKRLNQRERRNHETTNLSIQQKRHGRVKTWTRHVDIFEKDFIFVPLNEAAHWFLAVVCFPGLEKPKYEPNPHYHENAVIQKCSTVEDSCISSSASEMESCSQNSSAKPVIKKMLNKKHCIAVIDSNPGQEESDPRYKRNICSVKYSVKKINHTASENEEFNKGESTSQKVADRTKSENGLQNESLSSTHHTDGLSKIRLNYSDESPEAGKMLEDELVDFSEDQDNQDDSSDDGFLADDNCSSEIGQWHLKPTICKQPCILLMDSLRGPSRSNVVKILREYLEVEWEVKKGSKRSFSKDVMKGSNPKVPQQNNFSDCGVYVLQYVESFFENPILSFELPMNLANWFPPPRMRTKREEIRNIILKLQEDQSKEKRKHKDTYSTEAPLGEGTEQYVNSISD

[3] = target: T4, Sentrin-specific protease 7 (Homo sapiens, UniProt Q9BQF6); test: inhibition of human SENP7 cleavage activity – biochemical, luminescence, SAR follow-up (AID 504497); assay type: functional
T4 sequence (Q9BQF6 whole entry): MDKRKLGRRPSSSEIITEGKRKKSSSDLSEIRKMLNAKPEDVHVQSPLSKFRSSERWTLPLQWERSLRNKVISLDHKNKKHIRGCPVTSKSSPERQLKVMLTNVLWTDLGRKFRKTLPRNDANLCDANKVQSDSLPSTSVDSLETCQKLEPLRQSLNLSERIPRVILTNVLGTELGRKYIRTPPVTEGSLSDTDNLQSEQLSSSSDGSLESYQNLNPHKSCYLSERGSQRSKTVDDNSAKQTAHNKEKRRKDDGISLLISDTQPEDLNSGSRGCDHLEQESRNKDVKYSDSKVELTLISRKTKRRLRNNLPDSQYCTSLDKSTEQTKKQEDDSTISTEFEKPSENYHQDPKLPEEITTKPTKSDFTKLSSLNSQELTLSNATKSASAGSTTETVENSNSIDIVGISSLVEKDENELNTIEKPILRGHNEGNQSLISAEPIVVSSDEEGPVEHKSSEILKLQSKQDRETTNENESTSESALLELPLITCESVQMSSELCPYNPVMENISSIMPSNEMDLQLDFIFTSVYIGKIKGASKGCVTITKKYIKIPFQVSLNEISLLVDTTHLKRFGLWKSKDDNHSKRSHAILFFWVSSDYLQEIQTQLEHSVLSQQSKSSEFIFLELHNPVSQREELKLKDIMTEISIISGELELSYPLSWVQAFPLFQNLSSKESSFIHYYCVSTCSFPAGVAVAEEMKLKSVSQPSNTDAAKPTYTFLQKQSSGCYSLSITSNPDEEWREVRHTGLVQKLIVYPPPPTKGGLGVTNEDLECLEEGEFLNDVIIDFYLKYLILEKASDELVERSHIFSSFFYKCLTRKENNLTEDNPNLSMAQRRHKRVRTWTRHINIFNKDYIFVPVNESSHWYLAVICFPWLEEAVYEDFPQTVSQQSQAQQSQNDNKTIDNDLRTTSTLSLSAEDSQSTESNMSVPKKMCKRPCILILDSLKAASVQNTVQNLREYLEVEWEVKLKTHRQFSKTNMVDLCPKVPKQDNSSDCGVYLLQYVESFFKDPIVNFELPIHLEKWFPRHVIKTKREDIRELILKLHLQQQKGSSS

[4] = target: T5, Sentrin-specific protease 8 (Homo sapiens, UniProt Q96LD8); test: inhibition of human SENP8 cleavage activity – biochemical, luminescence, SAR follow-up (AID 504501); assay type: functional
T5 sequence (Q96LD8 whole entry): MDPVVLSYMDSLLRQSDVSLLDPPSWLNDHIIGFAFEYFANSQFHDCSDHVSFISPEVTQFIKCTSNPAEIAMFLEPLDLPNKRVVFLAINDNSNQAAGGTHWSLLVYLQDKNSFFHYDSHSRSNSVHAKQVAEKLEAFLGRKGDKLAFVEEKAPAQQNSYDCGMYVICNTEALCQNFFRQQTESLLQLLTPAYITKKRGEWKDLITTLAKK

Protein Wnt-3a = Protein Wnt-3a (Mus musculus, UniProt P27467); test: antagonism of Wnt3a pathway luciferase reporter – Wnt-LIGHT cells, luminescence, selectivity assay for Gli-SUFU antagonist project, dose response (AID 651570); assay type: functional; conditions: read-out: IC50_Mean;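 further: Wnt-LIGHT reporter cells stimulated with conditioned medium from Wnt3a-producing cells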
[5] = target: Serine/threonine-protein kinase pim-1 (Homo sapiens, UniProt P11309); assay type: functional
[6] = target: T6, Interleukin-1 receptor-associated kinase 4 (Homo sapiens, UniProt Q9NWZ3); assay type: functional
T6 sequence (Q9NWZ3 whole entry): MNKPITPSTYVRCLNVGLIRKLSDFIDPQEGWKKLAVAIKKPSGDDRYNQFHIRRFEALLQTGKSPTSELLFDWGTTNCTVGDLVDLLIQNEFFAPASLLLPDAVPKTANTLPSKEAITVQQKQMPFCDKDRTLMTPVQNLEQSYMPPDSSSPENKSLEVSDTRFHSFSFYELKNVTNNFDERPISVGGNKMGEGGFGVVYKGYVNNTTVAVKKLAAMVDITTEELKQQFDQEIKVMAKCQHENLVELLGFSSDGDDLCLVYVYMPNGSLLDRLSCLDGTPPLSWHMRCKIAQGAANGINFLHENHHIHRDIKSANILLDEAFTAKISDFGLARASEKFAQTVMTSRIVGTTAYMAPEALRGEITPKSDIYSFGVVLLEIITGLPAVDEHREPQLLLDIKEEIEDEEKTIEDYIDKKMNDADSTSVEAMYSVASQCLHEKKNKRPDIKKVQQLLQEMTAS

[7] = target: cAMP-dependent protein kinase catalytic subunit alpha (Homo sapiens, UniProt P17612); assay type: functional
[8] = target: Cell division cycle 7-related protein kinase (Homo sapiens, UniProt O00311); assay type: functional;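 further: value obtained from a kinome-wide kinase panel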
[9] = target: Dual specificity protein kinase CLK4 (Homo sapiens, UniProt Q9HAZ1); assay type: functional
[10] = target: Glycogen synthase kinase-3 beta (Homo sapiens, UniProt P49841); assay type: functional;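 further: value comes from a broad kinome profiling panel, with GSK3B as the panel member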
[11] = target: Homeodomain-interacting protein kinase 2 (Homo sapiens, UniProt Q9H2X6); assay type: functional;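 further: measured within a kinome-wide kinase profiling panel, HIPK2 being one panel member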
[12] = target: T7, Endoribonuclease toxin MazF (Escherichia coli K-12, UniProt P0AE70); test: activation of MazEF endoribonuclease cleavage – biochemical, fluorescence, single-stranded RNA substrate, uHTS hits, dose response (AID 588481); assay type: functional
T7 sequence (P0AE70 whole entry): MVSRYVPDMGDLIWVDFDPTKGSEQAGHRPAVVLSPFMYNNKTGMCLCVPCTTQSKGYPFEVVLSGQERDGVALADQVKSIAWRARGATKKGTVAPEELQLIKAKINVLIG

[13] = target: T7, Endoribonuclease toxin MazF; test: substrate-only fluorescence increase artefacts – biochemical, single-stranded RNase substrate, counter-screen for MazEF activator project, dose response (AID 588502); assay type: functional

Chain of Protein Wnt-3a (P27467 whole entry): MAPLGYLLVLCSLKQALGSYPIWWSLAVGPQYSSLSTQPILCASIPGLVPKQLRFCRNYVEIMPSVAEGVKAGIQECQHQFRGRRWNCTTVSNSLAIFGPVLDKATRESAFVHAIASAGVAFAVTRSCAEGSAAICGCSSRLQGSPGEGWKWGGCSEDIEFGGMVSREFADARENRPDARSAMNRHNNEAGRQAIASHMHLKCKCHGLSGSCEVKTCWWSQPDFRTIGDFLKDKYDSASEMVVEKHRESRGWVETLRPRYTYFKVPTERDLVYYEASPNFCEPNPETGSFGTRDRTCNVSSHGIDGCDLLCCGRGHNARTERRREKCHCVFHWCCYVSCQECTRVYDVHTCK
Chain of Adenosylmethionine-8-amino-7-oxononanoate aminotransferase (P9WQ81 whole entry): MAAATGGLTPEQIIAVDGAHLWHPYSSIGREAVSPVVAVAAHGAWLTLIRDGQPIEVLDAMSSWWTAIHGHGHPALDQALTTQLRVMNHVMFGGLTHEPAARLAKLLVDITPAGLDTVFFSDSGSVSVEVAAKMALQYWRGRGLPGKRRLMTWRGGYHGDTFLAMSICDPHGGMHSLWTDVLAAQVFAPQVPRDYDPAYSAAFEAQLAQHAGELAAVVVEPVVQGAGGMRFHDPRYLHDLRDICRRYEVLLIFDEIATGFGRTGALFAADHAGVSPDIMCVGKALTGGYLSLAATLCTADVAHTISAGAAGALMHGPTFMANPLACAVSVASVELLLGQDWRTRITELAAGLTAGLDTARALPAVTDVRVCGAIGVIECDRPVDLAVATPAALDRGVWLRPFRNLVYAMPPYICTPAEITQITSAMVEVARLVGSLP
Chain of Cytochrome P450 2D6 (P10635 whole entry): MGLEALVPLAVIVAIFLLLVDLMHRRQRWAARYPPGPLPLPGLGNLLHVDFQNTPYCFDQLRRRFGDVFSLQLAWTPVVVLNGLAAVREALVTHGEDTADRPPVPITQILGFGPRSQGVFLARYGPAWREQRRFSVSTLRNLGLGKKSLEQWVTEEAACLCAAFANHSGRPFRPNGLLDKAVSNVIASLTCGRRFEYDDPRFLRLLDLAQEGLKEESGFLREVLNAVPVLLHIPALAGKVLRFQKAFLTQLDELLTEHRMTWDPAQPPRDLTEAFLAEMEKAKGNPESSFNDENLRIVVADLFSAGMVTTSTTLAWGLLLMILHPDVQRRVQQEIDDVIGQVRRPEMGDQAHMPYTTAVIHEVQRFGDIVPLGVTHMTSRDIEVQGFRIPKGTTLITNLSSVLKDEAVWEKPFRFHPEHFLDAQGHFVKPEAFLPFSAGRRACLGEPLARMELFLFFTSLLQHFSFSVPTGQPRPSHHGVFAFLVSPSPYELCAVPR
Chain of Homeodomain-interacting protein kinase 2 (Q9H2X6 whole entry): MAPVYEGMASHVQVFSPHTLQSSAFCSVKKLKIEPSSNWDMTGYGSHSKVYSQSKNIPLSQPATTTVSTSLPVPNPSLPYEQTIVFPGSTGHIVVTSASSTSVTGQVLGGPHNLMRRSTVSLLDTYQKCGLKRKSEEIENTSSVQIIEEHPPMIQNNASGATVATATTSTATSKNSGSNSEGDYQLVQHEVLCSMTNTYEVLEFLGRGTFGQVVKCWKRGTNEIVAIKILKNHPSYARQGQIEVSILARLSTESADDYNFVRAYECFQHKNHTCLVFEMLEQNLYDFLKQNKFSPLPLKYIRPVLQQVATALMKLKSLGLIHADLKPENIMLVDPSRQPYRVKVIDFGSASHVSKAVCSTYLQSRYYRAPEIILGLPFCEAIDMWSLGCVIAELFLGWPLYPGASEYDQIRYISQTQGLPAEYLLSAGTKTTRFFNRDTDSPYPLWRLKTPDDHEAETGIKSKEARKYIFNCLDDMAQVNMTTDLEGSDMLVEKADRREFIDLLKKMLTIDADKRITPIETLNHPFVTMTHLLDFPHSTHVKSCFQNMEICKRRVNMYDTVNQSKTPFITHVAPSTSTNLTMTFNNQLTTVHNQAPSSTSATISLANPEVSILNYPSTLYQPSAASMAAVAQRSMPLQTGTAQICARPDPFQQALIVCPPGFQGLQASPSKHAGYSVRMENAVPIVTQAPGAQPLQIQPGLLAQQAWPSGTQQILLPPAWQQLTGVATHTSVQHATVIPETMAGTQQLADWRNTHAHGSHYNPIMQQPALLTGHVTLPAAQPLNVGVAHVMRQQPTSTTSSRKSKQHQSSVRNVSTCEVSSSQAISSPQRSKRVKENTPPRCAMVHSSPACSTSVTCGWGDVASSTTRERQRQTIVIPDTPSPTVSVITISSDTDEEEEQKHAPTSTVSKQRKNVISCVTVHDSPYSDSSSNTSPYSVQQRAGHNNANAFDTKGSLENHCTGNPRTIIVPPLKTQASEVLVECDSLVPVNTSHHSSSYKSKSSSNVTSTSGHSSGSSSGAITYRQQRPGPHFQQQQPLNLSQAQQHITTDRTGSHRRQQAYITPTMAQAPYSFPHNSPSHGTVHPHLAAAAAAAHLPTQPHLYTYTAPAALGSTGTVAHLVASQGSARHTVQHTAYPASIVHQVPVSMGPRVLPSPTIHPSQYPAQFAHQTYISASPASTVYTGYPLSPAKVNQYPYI
Chain of Dual specificity protein kinase CLK4 (Q9HAZ1 whole entry): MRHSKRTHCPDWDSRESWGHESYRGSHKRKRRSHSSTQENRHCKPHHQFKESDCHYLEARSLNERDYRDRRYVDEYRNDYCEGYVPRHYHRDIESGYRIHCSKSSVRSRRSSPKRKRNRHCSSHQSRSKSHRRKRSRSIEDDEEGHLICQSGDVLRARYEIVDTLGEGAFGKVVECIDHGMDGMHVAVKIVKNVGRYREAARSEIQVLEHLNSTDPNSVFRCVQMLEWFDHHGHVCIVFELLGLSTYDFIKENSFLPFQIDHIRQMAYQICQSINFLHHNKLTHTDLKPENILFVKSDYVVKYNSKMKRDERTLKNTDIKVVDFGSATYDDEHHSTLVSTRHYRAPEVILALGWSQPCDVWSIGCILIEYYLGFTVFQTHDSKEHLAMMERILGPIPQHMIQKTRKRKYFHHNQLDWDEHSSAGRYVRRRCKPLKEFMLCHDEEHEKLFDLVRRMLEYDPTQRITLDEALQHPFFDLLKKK
Chain of Cell division cycle 7-related protein kinase (O00311 whole entry): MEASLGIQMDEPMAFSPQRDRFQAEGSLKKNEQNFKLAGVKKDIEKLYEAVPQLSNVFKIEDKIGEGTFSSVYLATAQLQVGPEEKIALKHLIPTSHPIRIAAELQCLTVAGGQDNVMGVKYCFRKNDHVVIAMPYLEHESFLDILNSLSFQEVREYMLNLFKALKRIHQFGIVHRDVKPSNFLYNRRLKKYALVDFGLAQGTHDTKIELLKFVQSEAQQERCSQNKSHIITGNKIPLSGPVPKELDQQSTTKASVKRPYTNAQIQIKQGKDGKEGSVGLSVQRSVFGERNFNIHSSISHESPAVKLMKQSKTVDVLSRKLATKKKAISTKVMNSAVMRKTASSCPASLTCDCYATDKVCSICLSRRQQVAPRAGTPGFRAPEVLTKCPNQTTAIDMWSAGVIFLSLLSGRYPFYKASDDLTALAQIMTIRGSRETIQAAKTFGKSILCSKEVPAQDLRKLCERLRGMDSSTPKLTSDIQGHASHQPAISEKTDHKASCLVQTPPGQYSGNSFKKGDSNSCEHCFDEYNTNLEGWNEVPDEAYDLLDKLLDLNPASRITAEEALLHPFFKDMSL
Chain of Glycogen synthase kinase-3 beta (P49841 whole entry): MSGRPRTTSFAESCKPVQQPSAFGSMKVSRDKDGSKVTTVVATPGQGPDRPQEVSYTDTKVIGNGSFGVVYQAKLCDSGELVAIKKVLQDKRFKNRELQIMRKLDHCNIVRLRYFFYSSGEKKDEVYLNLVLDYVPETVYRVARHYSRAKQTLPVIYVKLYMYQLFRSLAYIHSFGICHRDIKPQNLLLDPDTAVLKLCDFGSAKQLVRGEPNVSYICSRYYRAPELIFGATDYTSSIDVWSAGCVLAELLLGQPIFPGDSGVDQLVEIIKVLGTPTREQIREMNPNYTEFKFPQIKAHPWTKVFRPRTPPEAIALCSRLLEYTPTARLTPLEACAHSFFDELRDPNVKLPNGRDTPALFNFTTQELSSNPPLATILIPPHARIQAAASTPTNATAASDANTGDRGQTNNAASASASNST
Chain of Serine/threonine-protein kinase pim-1 (P11309 whole entry): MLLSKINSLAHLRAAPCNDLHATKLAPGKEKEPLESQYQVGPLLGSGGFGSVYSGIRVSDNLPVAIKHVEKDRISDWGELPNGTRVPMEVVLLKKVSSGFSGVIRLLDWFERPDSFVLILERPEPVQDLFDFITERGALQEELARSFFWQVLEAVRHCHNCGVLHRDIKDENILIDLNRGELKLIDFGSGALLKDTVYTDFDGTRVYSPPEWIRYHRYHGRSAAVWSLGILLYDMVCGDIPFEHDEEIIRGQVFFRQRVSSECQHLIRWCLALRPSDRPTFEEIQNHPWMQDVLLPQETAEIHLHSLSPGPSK

Cc1nc2nc(SCC(=O)NCc3ccco3)nn2c(C)c1Cc1c(F)cccc1Cl
AC50 (Cytochrome P450 1A2): 20 µM (inconclusive) | AC50 [1]: 1.38 µM (active) | AC50 (Cytochrome P450 2D6): 28.2 µM (inconclusive)

O=C(Nc1ccc(-c2nc3cc(Cl)ccc3o2)cc1)c1ccccc1
IC50 (Caspase-3): > 99 µM (inactive) | IC50 [2]: > 99 µM (inactive) | IC50 [3]: > 99 µM (inactive) | IC50 [4]: > 99 µM (inactive)

C=CCn1c(COc2ccccc2F)nnc1SCCN1C(=O)c2ccccc2C1=O
AC50 [1]: 7.95 µM (active)

CCN(CC)S(=O)(=O)c1ccc(C)c(NC(=S)N2CCN(Cc3ccc4c(c3)OCO4)CC2)c1
IC50 (Protein Wnt-3a): 2.35 µM (active)

NC(=O)c1ccc(-c2ccnc(N)n2)cc1N1CCCCC1
Ki [5]: > 10 µM (inactive) | Ki [6]: 5.01 µM (active) | Ki [7]: > 7.94 µM (inactive) | Ki [8]: 0.00794 µM (active) | Ki [9]: 0.00316 µM (active) | Ki [10]: 1 µM (active) | Ki [11]: > 3.16 µM (inactive)

O=C(Nc1ccc(Oc2ccccc2)cc1)c1ccc2c(c1)OCO2
IC50 (Caspase-3): 1.99 µM (active) | IC50 [2]: 1.55 µM (active) | IC50 [3]: 1.06 µM (active) | IC50 [4]: 2.2 µM (active)

CCCn1c(SCC(=O)Nc2nc(-c3ccc(OC)cc3)cs2)nc2c1c(=O)n(C)c(=O)n2C
EC50 [12]: > 99 µM (inactive) | EC50 [13]: > 99 µM (inactive) | IC50 (Protein Wnt-3a): 1.32 µM (active)

Clc1ccc(N/N=C/c2cn(Cc3ccccc3)c3ccccc23)cc1
IC50 (Caspase-3): > 99 µM (inactive) | IC50 [2]: > 99 µM (inactive) | IC50 [3]: > 99 µM (inactive) | IC50 [4]: > 99 µM (inactive)
